| Compound | melting point |
| --- | --- |
| CC(C)(C)C(=O)c1c[nH]c2ncc(-c3cccc(N4CCC(S(C)(=O)=O)C4)c3)nc12 (centres unmarked) [Example 109, 1-{2-[3-(3-Methanesulfonyl-pyrrolidin-1-yl)-phenyl]-5H-pyrrolo[2,3-b]pyrazin-7-yl}-2,2-dimethyl-propan-1-one] | 223 to 225 °C |
| COc1cc(-c2cnc3[nH]cc(C(=O)C4(C)CCCC4)c3n2)cc(OC)c1OC [Example 147, (1-Methyl-cyclopentyl)-[2-(3,4,5-trimethoxy-phenyl)-5H-pyrrolo[2,3-b]pyrazin-7-yl]-methanone] | 244 to 246 °C |
| CC1(C(=O)c2c[nH]c3ncc(-c4cccc(CCCO)c4)nc23)CCCCC1 [Example 156, {2-[3-(3-Hydroxy-propyl)-phenyl]-5H-pyrrolo[2,3-b]pyrazin-7-yl}-(1-methyl-cyclohexyl)-methanone] | 80 to 83 °C |
| CN(C)c1ccc(-c2cnc3[nH]cc(C(=O)C4(C)CCCCC4)c3n2)cc1 [Example 158, [2-(4-Dimethylamino-phenyl)-5H-pyrrolo[2,3-b]pyrazin-7-yl]-(1-methyl-cyclohexyl)-methanone] | 272 to 274 °C |
| CC(C)(C)C(=O)c1c[nH]c2ncc(-c3cccc(N4CCCC4)c3)nc12 [Example 33, 2,2-dimethyl-1-[2-(3-pyrrolidin-1-yl-phenyl)-5H-pyrrolo[2,3-b]pyrazin-7-yl]-propan-1-one] | 259 to 260 °C |
| COc1cc(-c2cnc3[nH]cc(C(=O)C45CC6CC(CC(C6)C4)C5)c3n2)cc(OC)c1OC [Example 162, Adamantan-1-yl-[2-(3,4,5-trimethoxy-phenyl)-5H-pyrrolo[2,3-b]pyrazin-7-yl]-methanone] | 267 to 268 °C |
| CC(C)Oc1cccc(-c2cnc3[nH]cc(C(=O)C(C)(C)C)c3n2)c1 [Example 138, 1-[2-(3-Isopropoxy-phenyl)-5H-pyrrolo[2,3-b]pyrazin-7-yl]-2,2-dimethyl-propan-1-one] | 149 to 150 °C |

More lines, now with the values ahead:

| melting point | Compound |
| --- | --- |
| 242 to 243 °C | CC1(C(=O)c2c[nH]c3ncc(-c4cccc(N5CCCC5)c4)nc23)CCCC1 [Example 167, (1-Methyl-cyclopentyl)-[2-(3-pyrrolidin-1-yl-phenyl)-5H-pyrrolo[2,3-b]pyrazin-7-yl]-methanone] |
| 260.9 to 264.4 °C | Cc1nnc(-c2cccc(-c3cnc4[nH]cc(C(=O)C(C)(C)C)c4n3)c2)o1 [Example I-325, 2,2-Dimethyl-1-{2-[3-(5-methyl-[1,3,4]oxadiazol-2-yl)-phenyl]-5H-pyrrolo[2,3-b]pyrazin-7-yl}-propan-1-one] |
| 205 to 206 °C | CC(C)(C)C(=O)c1c[nH]c2ncc(-c3cccc(NCCS(C)(=O)=O)c3)nc12 [Example I-407, 1-{2-[3-(2-Methanesulfonyl-ethylamino)-phenyl]-5H-pyrrolo[2,3-b]pyrazin-7-yl}-2,2-dimethyl-propan-1-one] |
| 233 to 235 °C | CC(C)Oc1cc(-c2cnc3[nH]cc(C(=O)C(C)(C)C)c3n2)cc(N2CCCC2)c1 [Example I-152, 1-[2-(3-Isopropoxy-5-pyrrolidin-1-yl-phenyl)-5H-pyrrolo[2,3-b]pyrazin-7-yl]-2,2-dimethyl-propan-1-one] |
| > 300 °C | CC(C)(C)C(=O)c1c[nH]c2ncc(-c3cccc(-c4cn[nH]c4)c3)nc12 [Example I-369, 2,2-Dimethyl-1-{2-[3-(1H-pyrazol-4-yl)-phenyl]-5H-pyrrolo[2,3-b]pyrazin-7-yl}-propan-1-one] |
| 248 to 249 °C | CC(C)(C)C(=O)c1c[nH]c2ncc(-c3cccc(C#N)c3)nc12 [Example 237, 3-[7-(2,2-Dimethyl-propionyl)-5H-pyrrolo[2,3-b]pyrazin-2-yl]-benzonitrile] |
| 217 to 219 °C | CC(C)(C)C(=O)c1c[nH]c2ncc(-c3cccc(NS(=O)(=O)c4ccccc4)c3)nc12 [Example 234, N-{3-[7-(2,2-Dimethyl-propionyl)-5H-pyrrolo[2,3-b]pyrazin-2-yl]-phenyl}-benzenesulfonamide] |
